Experimental data: patent publication US20100113530A1, “S1P LYASE INHIBITORS FOR THE TREATMENT OF CEREBRAL MALARIA” (priority 2008, published 2010)

How the values were obtained:
CD8+ T cells = assay: Cerebral malaria model: flow cytometry of tail vein blood for B and T cell levels; format: in vivo, C56B1/6 mice; details: first dose one day before infection, blood taken 24 h after first dose, FIG. 1
Protocol: (§1) FIGS. 1 and 2 show results of an experiment using three groups of 10 female C56B1/6 mice. The mice in all three groups were infected with 1 million parasites (P. berghei ANKA) i.p. in 500 μl of media. The first group was the control group. The S1P lyase inhibitor (E)-1-(4-((1R,2S,3R)-1,2,3,4-tetrahydroxybutyl)-1H-imidazol-2-yl)-ethanone oxime was administered i.p. (100 mg/kg) to the mice in the second group, and was administered by gavage (100 mg/kg) to the mice in the third group. The drug was administered daily, and was first administered one day before infection.
(§2) Twenty four hours after the drug was first administered, tail vein blood was taken from the mice, and flow cytometry analysis was used to assess the levels of B and T cells, using antibodies to CD3, CD4, CD8 and CD19. The animals were monitored daily for body weight, hematocrit, and parasitaemia, and twice daily for survival.

P. berghei ANKA = assay: Cerebral malaria model: survival of infected mice; format: in vivo, C56B1/6 mice; details: first dose one day before infection, FIG. 2
Protocol: as §1, §2

## C/C(=N\O)c1nc([C@@H](O)[C@H](O)[C@H](O)CO)c[nH]1 [(E)-1-(4-((1R,2S,3R)-1,2,3,4-tetrahydroxybutyl)-1H-imidazol-2-yl)-ethanone oxime]
CD8+ T cells; gavage 100 mg/kg daily
  CD8+ T cells as compared to untreated control group: decreased CD8+ T cells
CD8+ T cells; i.p. 100 mg/kg daily
  CD8+ T cells as compared to untreated control group: decreased CD8+ T cells
P. berghei ANKA; gavage 100 mg/kg daily
  survival as compared to control group: lived significantly longer
P. berghei ANKA; i.p. 100 mg/kg daily
  survival as compared to control group: lived significantly longer
